Structures can show the parent of a compound that is named as a salt.
Key:
[1] = test system: bacterial strains that express the class D cephalosporinase OXA-15; experiment: Standard BLI potentiation MIC / synergy MIC (sMIC) assays run in the presence of a β-lactam, OXA-15 expressing strains; assay type: cell-based, E. coli; conditions: BLI in combination with a β-lactam; comparison with Avibactam (comparator compound CCC)
Outline: (§1)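 Isogenic E. coli DH10B carrying cloned β-lactamase genes on pBR322-derived plasmid (blaTEM-1 promoter, tetracycline 25 μg/mL) tested by CLSI broth microdilution in CAMHB. Test compound and β-lactam each diluted and combined; MIC reported in presence of β-lactam.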

[2] = test system: bacterial strains that express KPC β-lactamases; experiment: Standard BLI potentiation MIC / synergy MIC (sMIC) assays run in the presence of a β-lactam, KPC expressing strains; assay type: cell-based; conditions: more active for at least one KPC strain and/or better spectrum of activity than Avibactam; BLI in combination with a β-lactam
Outline: as §1

Row | SMILES | activity against bacterial strains that express the class D cephalosporinase OXA-15, compared with Avibactam [1] | activity and/or spectrum of activity against bacterial strains that express KPC β-lactamases, compared with Avibactam [2]
1 | O=C1N2C[C@@H](CC[C@H]2c2nnc(CCCNC3CCNCC3)o2)N1OS(=O)(=O)O [Compound 771, (2S,5R)-7-oxo-2-(5-(3-(piperidin-4-ylamino)propyl)-1,3,4-oxadiazol-2-yl)-1,6-diazabicyclo[3.2.1]octan-6-yl hydrogen sulfate] | more active than Avibactam | more active than Avibactam
2 | O=C1N2C[C@@H](CC[C@H]2c2nnc(CCCCNC3CCNCC3)o2)N1OS(=O)(=O)O [Compound 772, (2S,5R)-7-oxo-2-(5-(4-(piperidin-4-ylamino)butyl)-1,3,4-oxadiazol-2-yl)-1,6-diazabicyclo[3.2.1]octan-6-yl hydrogen sulfate] | more active than Avibactam | more active than Avibactam
3 | NC1CCN(Cc2nnc([C@@H]3CC[C@@H]4CN3C(=O)N4OS(=O)(=O)O)o2)CC1 [Compound 774, (2S,5R)-2-(5-((4-aminopiperidin-1-yl)methyl)-1,3,4-oxadiazol-2-yl)-7-oxo-1,6-diazabicyclo[3.2.1]octan-6-yl hydrogen sulfate] | more active than Avibactam | more active than Avibactam
4 | O=C1N2C[C@@H](CC[C@H]2c2nnc(CCN3CCNCC3)o2)N1OS(=O)(=O)O [Compound 776, (2S,5R)-7-oxo-2-(5-(2-(piperazin-1-yl)ethyl)-1,3,4-oxadiazol-2-yl)-1,6-diazabicyclo[3.2.1]octan-6-yl hydrogen sulfate] | more active than Avibactam | more active than Avibactam
5 | O=C1N2C[C@@H](CC[C@H]2c2nnc(CN3CCNCC3)o2)N1OS(=O)(=O)O [Compound 777, (2S,5R)-7-oxo-2-(5-(piperazin-1-ylmethyl)-1,3,4-oxadiazol-2-yl)-1,6-diazabicyclo[3.2.1]octan-6-yl hydrogen sulfate] | more active than Avibactam | more active than Avibactam
6 | O=C1N2C[C@@H](CC[C@H]2c2nnc([C@H]3CNCCN3)o2)N1OS(=O)(=O)O [Compound 779, (2S,5R)-7-oxo-2-(5-((R)-piperazin-2-yl)-1,3,4-oxadiazol-2-yl)-1,6-diazabicyclo[3.2.1]octan-6-yl hydrogen sulfate] | more active than Avibactam | more active than Avibactam
7 | C[n+]1ccc(-c2nnc([C@@H]3CC[C@@H]4CN3C(=O)N4OS(=O)(=O)[O-])o2)cc1 [Compound 782, (2S,5R)-2-(5-(1-methylpyridin-1-ium-4-yl)-1,3,4-oxadiazol-2-yl)-7-oxo-1,6-diazabicyclo[3.2.1]octan-6-yl sulfate] | more active than Avibactam | more active than Avibactam
8 | N[C@H]1C[C@H](c2nnc([C@@H]3CC[C@@H]4CN3C(=O)N4OS(=O)(=O)O)s2)C1 [Compound 783, (2S,5R)-2-(5-((1r,3S)-3-aminocyclobutyl)-1,3,4-thiadiazol-2-yl)-7-oxo-1,6-diazabicyclo[3.2.1]octan-6-yl hydrogen sulfate] | more active than Avibactam | more active than Avibactam
9 | N=C(N)N[C@H]1C[C@@H](c2nnc([C@@H]3CC[C@@H]4CN3C(=O)N4OS(=O)(=O)O)s2)C1 [Compound 784, (2S,5R)-2-(5-((1s,3R)-3-guanidinocyclobutyl)-1,3,4-thiadiazol-2-yl)-7-oxo-1,6-diazabicyclo[3.2.1]octan-6-yl hydrogen sulfate] | more active than Avibactam | more active than Avibactam
10 | N=C(N)NCCc1nnc([C@@H]2CC[C@@H]3CN2C(=O)N3OS(=O)(=O)O)s1 [Compound 794, (2S,5R)-2-(5-(2-guanidinoethyl)-1,3,4-thiadiazol-2-yl)-7-oxo-1,6-diazabicyclo[3.2.1]octan-6-yl hydrogen sulfate] | more active than Avibactam | more active than Avibactam
11 | N[C@H]1C[C@@H](c2nnc([C@@H]3CC[C@@H]4CN3C(=O)N4OS(=O)(=O)O)s2)C1 [Compound 795, (2S,5R)-2-(5-((1s,3R)-3-aminocyclobutyl)-1,3,4-thiadiazol-2-yl)-7-oxo-1,6-diazabicyclo[3.2.1]octan-6-yl hydrogen sulfate] | more active than Avibactam | more active than Avibactam
